What is called IC50 is the midpoint of a concentration-inhibition curve. Higher therefore signals weaker potency.

This assay has as its system P. falciparum 3D7 growth, pLDH absorbance. Put plainly: blood-stage malaria parasite growth potency – strain 3D7, dose response (AID 2305).
In turn, `CC(=O)N(Cc1cccc(-c2ccc(CNCCc3ccccc3)cc2)c1)C1CCN(Cc2ccccc2)CC1` gave an IC50 of 690 nM.

As for `Oc1ccc(CCNCc2ccc(OCc3ccccc3)c(OCc3ccccc3)c2)cc1`, the IC50 came to 1510 nM.

On to `CCCCCCCN1CC[C@@H](CCCc2ccnc3ccc(OCCCCN=C(N)NO)cc23)[C@@H](CC)C1`, for which the IC50 turned out to be 950 nM.

`CCC(C)NS(=O)(=O)c1ccc2nc(Nc3ccc(C)c(Cl)c3)n(C3CCCCC3)c2c1` (stereo not drawn) came in with an IC50 of 510 nM.

Consider `Cc1[nH]c2ccccc2c(=O)c1Br`, for which the IC50 was found to be 840 nM.

On to `COc1cccc(C(O)CNc2ccnc(Nc3cccc(-c4csc(C)n4)c3)n2)c1` (stereo not drawn), for which the IC50 was 790 nM.

As for `COc1c(CN2CCCC2)cccc1-c1cc2c(-c3ccc(C(=O)O)c(C(C)C)c3)ccnc2[nH]1`, the IC50 came out at 440 nM.

Turning to `CN(C)c1ccc(C=CC(=O)NC(=O)c2ccccc2O)cc1`, the IC50 was 230 nM.

The molecule `COc1ccc2nccc([C@@H](O)CN3CCC(NCCOc4ccc(F)cc4F)CC3)c2c1` came in with an IC50 of 140 nM.

Turning to `CC(=O)c1ccc(N2CCN(CCC3(c4ccc(Cl)c(Cl)c4)COCN(C(=O)c4ccccc4)C3)CC2)cc1` (stereo not drawn), the IC50 was 920 nM.

Turning to `COc1ccc(C2CCN(CCCCNC(=O)c3ccc(NC(=O)c4ccc(Cl)cc4)cc3)CC2)c(C)c1`, the IC50 was found to be 750 nM.

`O=C(O[C@@H]1CN[C@H](C#Cc2cc3ncnc(Nc4ccc5c(cnn5Cc5cccc(F)c5)c4)c3s2)C1)N1CCCC1`: the IC50 stood at 760 nM.

Turning to `Cc1nc2ccc(-c3nc4ccc(N)cc4[nH]3)cc2[nH]1`, the IC50 was 230 nM.

`COc1ccc(CNCc2ccsc2)cc1-c1ccc(S(=O)(=O)NCCN2CCCC2)c(C)c1` gave an IC50 of 900 nM.

In the case of `Cc1cc(C(=O)CN2C(=O)NC3(CCOc4ccccc43)C2=O)c(C)n1Cc1ccco1` (stereo not drawn), the IC50 amounted to 610 nM.

In the case of `Cn1ccnc1CCC(=O)Nc1ccc(Cl)cc1C(=O)Nc1ccc(Cl)cc1`, the IC50 came to 1560 nM.

As for `COc1nc2c(CCN3CC[C@H](NCc4cc(C#N)c5c(c4)CCO5)[C@H](O)C3)ccnc2cc1F`, the IC50 was determined as 350 nM.

`CCNc1cc(C(=O)N[C@@H](Cc2ccccc2)[C@H](O)CNC2CCC(C)(C)C2)cc(N2CCCCS2(=O)=O)c1` (stereo partly drawn) gave an IC50 of 140 nM.

As to `Oc1ccccc1CN1CCC2(CCCN(Cc3ccccc3F)C2)C1` (stereo not drawn), the IC50 amounted to 680 nM.

`COc1ccc(C2NCCc3c2[nH]c2ccccc32)cc1CN1CCN(c2ccc(F)cc2)CC1` (stereo not drawn) came in with an IC50 of 780 nM.

As for `COc1ccc(CCNc2nc(SCc3ccccc3Cl)nc3ccccc23)cc1OC`, the IC50 worked out at 940 nM.

On to `CCCN(CCC)CCCNc1ccc(C(=O)Nc2ccc(C(C)C)cc2)cc1[N+](=O)[O-]`, for which the IC50 worked out at 710 nM.

With `CCCCCCCC1CC(CC(=O)Nc2ccnc3ccc(OC)cc23)CN1C(=O)OC(C)(C)C` (stereo not drawn), the IC50 came out at 710 nM.

`CSC1=NC(=Nc2c(C)cccc2C)C2(CCCCC2)N1c1ccccc1Cl` displayed an IC50 of 820 nM.

The molecule `Cc1cccc(C(=O)N2CCN(Cc3cccc(NC(=O)c4cccs4)c3)CC2)c1` gave an IC50 of 220 nM.

The molecule `O=C(/C=C/c1ccc([N+](=O)[O-])cc1)N1CCC(NS(=O)(=O)c2ccc(F)cc2)CC1` registered an IC50 of 820 nM.

In turn, `NC(N)=NN=Cc1ccc2ccc3ccccc3c2c1` returned an IC50 of 380 nM.

The molecule `Nc1nc(Nc2cccc(O)c2)nc2ccccc12` came in with an IC50 of 790 nM.

Molecule `Cc1ccccc1CCNC(=O)c1ccc(N2CCN(c3ccncc3)CC2)nc1` yielded an IC50 of 1390 nM.

Molecule `Cc1cc2ncn(-c3nccc(NCc4ccc(F)cc4)n3)c2cc1C` came in with an IC50 of 890 nM.

In the case of `CCOc1cccc(C(=O)Nc2cccc(CN3CCCN(Cc4cccc(O)c4)CC3)c2)c1`, the IC50 was found to be 1090 nM.

With `COc1ccc2nccc([C@@H](O)CN3CCC(NCc4nc5ccc(F)cc5[nH]4)CC3)c2c1`, the IC50 stood at 730 nM.

In turn, `c1cc(CN2CCCCC2)cc(OCCCNc2ccnc3ccccc23)c1` yielded an IC50 of 430 nM.

Regarding `O=c1cc(NCCCNCc2cn(S(=O)(=O)c3ccccc3)c3ccccc23)[nH]c2ccccc12`, the IC50 amounted to 880 nM.

`O=[N+]([O-])c1cccc(CNCC2CCN(Cc3ccc(C(F)(F)F)cc3)CC2)c1`: the IC50 turned out to be 250 nM.

In the case of `COc1ccc2nccc([C@@H](O)CN3CCC(NC(=O)/C=C/c4cccc(C)c4)CC3)c2c1`, the IC50 was 1250 nM.

In the case of `CN(C)C1CCN(Cc2ccc(N3CCN(Cc4cccc5[nH]ccc45)CC3)nc2)CC1`, the IC50 stood at 1530 nM.

On to `CCCCCC(C)N=C(Nc1ccc([N+](=O)[O-])cc1O)Nc1ccccc1Br` (stereo not drawn), for which the IC50 came to 620 nM.

Regarding `Nc1ccc(-c2cnc3[nH]cc(-c4ccc(C(=O)O)cc4)c3c2)cn1`, the IC50 turned out to be 960 nM.

Molecule `COc1ccc(CN(C)Cc2cc(C(C)C)c(C)cc2O)cc1F` registered an IC50 of 650 nM.

`O=C(Nc1cc(=O)[nH]c2nc(-c3ccccc3)nn12)C1CCCCC1` had an IC50 of 420 nM.

In turn, `NC(=NCCCCCCN=C(N)/N=C(\N)c1ccc(Cl)cc1)/N=C(\N)c1ccc(Cl)cc1` yielded an IC50 of 210 nM.

Molecule `Cc1ccc(CNC(=O)c2cc3c(=O)n4ccccc4nc3n(CCCN3CCOCC3)c2=N)cc1` returned an IC50 of 1090 nM.

`O=C(CCc1cnc[nH]1)Nc1cccc(-c2ccc(-c3nc4ccc(F)cc4[nH]3)cc2)c1` displayed an IC50 of 240 nM.

Molecule `COc1cc2c(cc1C=CC(=O)N1CCN(Cc3nc4sc(C)c(C)c4c(=O)[nH]3)CC1)OC(C)C2` (stereo not drawn) had an IC50 of 1020 nM.

`COc1cccc(-c2ccc3ccnc(N)c3c2)c1`: the IC50 turned out to be 410 nM.

`CC(C)C(=O)NC(c1cccs1)c1cc(Cl)c2cccnc2c1O` (stereo not drawn) returned an IC50 of 580 nM.

For the molecule `COc1ccc(NC(=O)C2c3ccccc3C(=O)N(C3CCCC3)C2c2cccs2)cc1` (stereo not drawn), the IC50 turned out to be 1710 nM.

Molecule `CC(Cc1ccc(NC(=O)c2ccc(CC(C)NCc3ccc(Cl)cc3)cc2)cc1)NCCc1cccc(Cl)c1` (stereo not drawn) displayed an IC50 of 450 nM.

In turn, `CN(C)CCCNCc1ccc(-c2ccc(F)c(Cl)c2)o1` registered an IC50 of 800 nM.

As for `CCCCNCc1ccc(-c2nc(CN(Cc3ccc(Cl)c(Cl)c3)S(=O)(=O)c3ccc(NC(C)=O)cc3)cs2)cc1`, the IC50 turned out to be 1030 nM.

For the molecule `OC1CCC(Nc2ccc3ncc(-c4ccc(Cl)cc4)n3n2)CC1` (stereo not drawn), the IC50 is 820 nM.

`Oc1ccc2[nH]c(-c3ccc(OC(F)(F)F)cc3)nc2c1CNC1CCCC1` had an IC50 of 1750 nM.

`C=CCOC(=O)N1CCC(CNCc2cccc(-c3cccc(-c4nc5ccccc5[nH]4)c3)c2)C1` (stereo not drawn) had an IC50 of 340 nM.

For `N#Cc1ccc(CN2CCC(Oc3ccc(NC(=O)c4ccccc4)cc3Cl)CC2)cc1`, the IC50 was 1260 nM.

`CC(C(=O)Nc1ccc(Br)cc1Br)N1CCN(C(=O)c2ccco2)CC1` (stereo not drawn) displayed an IC50 of 750 nM.

`CCCCCCCC1=NN2C(=N)C(=Cc3cc(Br)c(OCc4ccc(F)cc4)c(OCC)c3)C(=O)N=C2S1` gave an IC50 of 1050 nM.

In turn, `NCc1ccc(CNCc2ccc(-c3ccc(-c4nc5ccc(C(F)(F)F)cc5[nH]4)s3)cc2)cc1` showed an IC50 of 160 nM.

In the case of `COc1cccc2cc(C(=O)N[C@@H](CC(C)C)C(=O)N[C@H](/C=N/N3C(=O)CN(Cc4ccccc4)C3=O)CCc3ccccc3)oc12`, the IC50 stood at 620 nM.

`NC1CCN(c2cnn(Cc3cccc(NC(=O)Nc4ccc(-c5ccccc5)cc4)c3)c(=O)c2Cl)CC1`: the IC50 is 1140 nM.

As to `COc1cccc(-c2nn(C)c3sc(C(=O)NCCN(C)Cc4ccccc4)cc23)c1`, the IC50 was 810 nM.

For the molecule `COc1cc2c(cc1COc1ccccc1)CCN1Cc3cc(OC)c(OC)cc3CC21` (stereo not drawn), the IC50 was determined as 150 nM.

`CC(C)CN1CCN(CCNc2c3ccccc3nc3ccccc23)CC1` had an IC50 of 820 nM.

For the origin of these results see PubChem BioAssay AID2305 (GlaxoSmithKline (GSK), 2010).
